Assay results as given in publication PMC5478271, “Chemical structure-guided design of dynapyrazoles, cell-permeable dynein inhibitors with a unique mode of action” (eLife, 2017).

System: CAD cells
Assay: Lysosome motility assay in CAD cell neurites (LysoTracker)
Type: cell-based, murine
Conditions: for Percentage of retrograde-directed lysosomes moving slower than 25 nm/s: 60 min; for Average track length of moving particles (lysosomes): 1 min imaging, control 32 ± 11 µm
From the text: This bidirectional transport of lysosomes requires kinesins and dynein 1 and can be observed by imaging live cells stained with the LysoTracker dye ([Vale, 2003]; [Pu et al., 2016]). A coupling between anterograde and retrograde motion has been described for membrane-bound organelles, with disruption of dynein-driven motion blocking bi-directional organelle motility ([Barlan et al., 2013]). We imaged control solvent (0.1% DMSO) treated cells and observed bidirectional motion of LysoTracker-labelled puncta (Figure 5E,H,K, Video 5). Overlays of successive images from a time-lapse series, color-coded for displacement, reveal organelle displacements (Figure 5H–J). […] Treatment with dynapyrazole-A suppressed bidirectional motion. In particular, the percentage of retrograde-directed lysosomes moving slower than 25 nm/s increased to ~47% (3.5µM) and ~59% (5µM) while the proportion of lysosomes moving at speeds > 250 nm/s decreased to below 10% (Figure 5N). We observed equivalent effects of dynapyrazole-A on anterograde motion velocities (kymographs in Figure 5K,L and M). In control cells, lysosomes with measureable displacements had trajectories that averaged 32 ± 11 µm (Figure 5O). Dynapyrazole-A (3.5 µM, Figure 5I and L) reduced the average track length of moving particles to 15.7 ± 4.7 µm, which can be seen as white punctae that result from the overlay of multiple color-coded frames without particle translocation. A higher dose of dynapyrazole-A 5 µM) shortened the average track length of moving particles to 6.7 ± 2.7 µm (Figure 5J,M,O). […] Higher concentrations of dynapyrazole-A (15 µM) lowered intracellular ATP levels by ~70% at 3 hr (Figure 5—figure supplement 5).
CAD cells (catecholaminergic neuronal tumor cell line, RRID:CVCL_0199) were maintained in DMEM/F12 medium with 10% Fetal Bovine Serum ([Qi et al., 1997]). Cell line identity was confirmed by the morphological response to serum withdrawal (i.e. neurite formation), a previously-documented characteristic of this cell line ([Qi et al., 1997]). 24 hr before the experiment cells were plated on coverslips in serum-free medium to induce neurite formation. Cells were treated with inhibitors or control solvent (0.1% DMSO final in all experiments) for 60 min, then lysosomes were labeled with 0.1 µM (final concentration) LysoTracker Red DND-99 (Molecular Probes) and used for microscopy immediately after LysoTracker addition.
Microscopy was performed using a Nikon TE-2000 inverted microscope equipped with a LED X-Cite illuminator (Lumen Dynamics) at 37 degrees. Images were acquired with a Hamamatsu ORCA-Flash 4.0 camera driven by MetaMorph software at a rate of 1 frame per second for 1 min. Lysosome motility in neurites was analyzed using Diatrack software (http://www.diatrack.org/), particle velocities were measured from frame to frame and the total length of trajectories divided by the number of analyzed organelles was calculated for every experimental condition.

## N#Cc1c(C2(c3ccc(Cl)cc3)CC2)nn2c1[nH]c(=O)c1cc(I)ccc12 [Compound 8, 2-[1-(4-chlorophenyl)cyclopropyl]-7-iodo-5-oxo-4H-pyrazolo[1,5-a]quinazoline-3-carbonitrile]
3.5 µM and 5 µM, control ~20%
  Proportion of lysosomes moving at speeds > 250 nm/s: below 10%
3.5 µM, control ~20%
  Percentage of retrograde-directed lysosomes moving slower than 25 nm/s: ~ 47%
3.5 µM
  Average track length of moving particles (lysosomes): 15.7 ± 4.7 µm
5 µM, control ~20%
  Percentage of retrograde-directed lysosomes moving slower than 25 nm/s: ~ 59%
5 µM
  Average track length of moving particles (lysosomes): 6.7 ± 2.7 µm
